Calls of active or inactive are those of the source. How the calls were made is not given here.
biological target: Luciferin 4-monooxygenase (Photinus pyralis) (UniProt P08659); test: firefly luciferase inhibitors, late-stage follow-up, artefact control for HSP90 inhibitor project, biochemical, luminescence, dose response (AID 2747); conditions: purified firefly luciferase, counterscreen
Sequence (P08659 whole entry, looked up): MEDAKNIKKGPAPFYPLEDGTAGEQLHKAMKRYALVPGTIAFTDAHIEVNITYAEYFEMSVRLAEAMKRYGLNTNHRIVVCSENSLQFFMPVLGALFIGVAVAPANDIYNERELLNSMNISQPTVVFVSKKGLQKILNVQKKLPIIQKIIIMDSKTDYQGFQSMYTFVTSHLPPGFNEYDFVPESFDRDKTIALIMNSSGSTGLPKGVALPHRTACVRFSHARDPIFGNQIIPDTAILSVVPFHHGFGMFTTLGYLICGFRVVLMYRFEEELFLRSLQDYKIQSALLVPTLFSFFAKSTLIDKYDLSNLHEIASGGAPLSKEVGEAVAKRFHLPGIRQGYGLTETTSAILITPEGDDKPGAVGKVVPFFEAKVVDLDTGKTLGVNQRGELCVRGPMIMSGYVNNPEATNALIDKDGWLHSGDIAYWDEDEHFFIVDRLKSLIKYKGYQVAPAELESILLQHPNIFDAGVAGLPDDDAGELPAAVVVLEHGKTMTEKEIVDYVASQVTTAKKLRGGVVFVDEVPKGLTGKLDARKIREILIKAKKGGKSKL

Structure (SMILES) | IC50
COc1ccccc1NC(=O)c1coc(=O)c(Br)c1 | > 60 µM (inactive)
CCOC(=O)c1csc(NC(=O)c2cc3ccccc3o2)n1 | > 60 µM (inactive)
COc1cc(C=NNc2ccc(Cl)c(C(=O)O)c2)ccc1OC(=O)c1ccc(F)cc1 | > 60 µM (inactive)
Cc1c(-c2nc(-c3ccc(C(F)(F)F)cc3)no2)n(C)oc1=O | > 60 µM (inactive)
CCOC(=O)C1=C(c2ccc(OC)cc2)C(=O)c2ccccc2C1=O | > 60 µM (inactive)
Cc1c(-c2nc(-c3ccc(C(C)(C)C)cc3)no2)n(C)oc1=O | > 60 µM (inactive)
COC(=O)c1ccccc1OCCCOc1ccc(C)cc1OC | > 60 µM (inactive)
CC(=O)Nc1ccccc1OCC(=O)c1cc(C)n(Cc2cccs2)c1C | > 60 µM (inactive)
Cc1cc(NO)nc(-c2ccc(Br)cc2)n1 | > 60 µM (inactive)
CCc1ccc(OCc2ccc(C(=O)OC)o2)cc1 | > 60 µM (inactive)

From PubChem BioAssay AID2747 (The Scripps Research Institute Molecular Screening Center, 2010)
